The values that follow come from patent US20250360132A1, “METHODS OF ADMINISTERING MYOSIN INHIBITORS” (MYOKARDIA, INC., priority 2022, published 2025).

Structures are written as SMILES.

Data set [1] concerns organic cation transporters (OCTs). In words: In vitro transporter inhibition. The data set is classed as in vitro ADME.
For the next data set, the target named is BSEP (Homo sapiens, UniProt O95342). Description: In vitro transporter inhibition. The data set is classed as in vitro ADME.
A further data set has as its system dogs. Description: Animal toxicology, dogs. The data set is classed as in vivo. How it is done:
(§1) The safety of mavacamten has been evaluated in rats and dogs at multiple dose levels (0.06 to 10 mg/kg/day) orally. […] Plasma exposures (AUC) at the NOAEL in rats and dogs were 0.1 and 0.3 times, respectively, human exposure (AUC) at the MRHD.

The next data set is described as follows: Solubility. In kind it is physicochemical.
In another data set the test system is virtual oHCM patients. In words: Exposure-response simulation of titration Regimen #2. Details: species or system human. The note with it: CYP2C19 phenotype distribution in the EU population. An excerpt: Mavacamten has substantial pharmacokinetic (PK) variability, the largest contributor being CYP2C19 phenotype. Beyond phenotype, and after incorporation of all PK covariates, a moderate inter-individual variability remains. As a result of the PK variability, there is a need to achieve an ideal balance of reducing the Valsalva left ventricular outflow tract gradient (VLVOT) while maintaining the patient's left ventricular ejection fraction (LVEF), and an echocardiogram (ECHO) based titration regimen was developed. Modeling and simulation analyses have been undertaken to further evaluate dose titration by CYP2C19 phenotype.
In addition, an exposure-response simulation-based approach was utilized to investigate multiple titration regimens using an equal distribution of CYP2C19 phenotype to allow for additional sensitivity in assessing the performance of the titration regimen for each phenotype. The evaluations included genotype specific dosing and titration, adjusted starting dose of 2.5 mg and additional monitoring intervals. For each posology investigated, the key objectives remained consistent: to limit the percent (%) of simulated patients experiencing LVEF <50%, while gradually up-titrating them to achieve VLVOT <30 mmHg. This Example outlines the evaluation of 3 titration regimens, described below.
The methods used to conduct the simulations are described as follows. […]

The next data set deals with pregnant rats. Description: Embryo-fetal development study in rats. The data set is classed as in vivo, rat. An excerpt:
Plasma exposure (based on area under the concentration-time curve or AUC) at the no-effect dose for embryo-fetal development in rats is 0.3 times the exposure in humans at the MRHD.

The test system of the next data set is CYP2B6. Description: In vitro CYP induction. In kind it is in vitro ADME. The text has this: Mavacamten is a CYP2B6 inducer.
A further data set deals with human lymphocyte. Description: Human in vitro lymphocyte electrogenicity assay. The data set is classed as cell-based. The text has this:
Mavacamten was not genotoxic in a bacterial reverse mutation test (Ames test), a human in vitro lymphocyte […] assay, or a rat in vivo micronucleus assay.

The test system of the next data set is healthy volunteers. In words: Cardiac electrophysiology (QTc) in healthy volunteers. In kind it is in vivo, human. An excerpt:
The mechanism of the QT prolongation effect is not known.

Data set [2] is described as follows: Pharmacokinetics in hepatic impairment. The data set is classed as in vivo, human. The note with it: mild (Child-Pugh A) or moderate (Child-Pugh B) hepatic impairment vs normal hepatic function. An excerpt: No dosage adjustment is required in patients with mild (Child-Pugh A) to moderate (Child-Pugh B) hepatic impairment. […] However, no additional dose adjustment is required in patients with mild to moderate hepatic impairment with the recommended dose titration algorithm and monitoring plan. The effect of severe (Child-Pugh C) hepatic impairment is unknown.
The effect of severe (Child-Pugh C) hepatic impairment is unknown.

For another data set, the system named is rats. Description: Animal toxicology, rats. The data set is classed as in vivo. As for the experimental part:
as §1

The next data set has as its target BCRP (Homo sapiens, UniProt Q9UNQ0). Description: In vitro transporter inhibition. In kind it is in vitro ADME.

Chain of BCRP (Q9UNQ0 whole entry): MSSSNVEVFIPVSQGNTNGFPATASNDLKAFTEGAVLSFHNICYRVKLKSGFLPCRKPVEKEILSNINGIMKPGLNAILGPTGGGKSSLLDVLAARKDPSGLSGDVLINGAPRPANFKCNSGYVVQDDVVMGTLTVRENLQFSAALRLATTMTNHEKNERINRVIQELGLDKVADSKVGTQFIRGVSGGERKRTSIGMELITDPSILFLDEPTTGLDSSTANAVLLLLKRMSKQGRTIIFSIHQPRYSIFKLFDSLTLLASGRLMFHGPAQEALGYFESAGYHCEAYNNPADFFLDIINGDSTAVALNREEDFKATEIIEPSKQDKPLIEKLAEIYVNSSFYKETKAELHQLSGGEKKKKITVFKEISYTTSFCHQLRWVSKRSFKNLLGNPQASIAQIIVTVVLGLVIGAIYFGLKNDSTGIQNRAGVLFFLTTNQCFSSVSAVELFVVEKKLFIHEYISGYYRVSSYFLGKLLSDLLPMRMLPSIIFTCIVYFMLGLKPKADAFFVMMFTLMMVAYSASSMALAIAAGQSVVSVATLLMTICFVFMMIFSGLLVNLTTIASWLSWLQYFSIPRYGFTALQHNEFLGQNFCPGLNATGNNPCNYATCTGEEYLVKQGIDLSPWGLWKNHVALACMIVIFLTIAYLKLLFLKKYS
Chain of BSEP (O95342 whole entry): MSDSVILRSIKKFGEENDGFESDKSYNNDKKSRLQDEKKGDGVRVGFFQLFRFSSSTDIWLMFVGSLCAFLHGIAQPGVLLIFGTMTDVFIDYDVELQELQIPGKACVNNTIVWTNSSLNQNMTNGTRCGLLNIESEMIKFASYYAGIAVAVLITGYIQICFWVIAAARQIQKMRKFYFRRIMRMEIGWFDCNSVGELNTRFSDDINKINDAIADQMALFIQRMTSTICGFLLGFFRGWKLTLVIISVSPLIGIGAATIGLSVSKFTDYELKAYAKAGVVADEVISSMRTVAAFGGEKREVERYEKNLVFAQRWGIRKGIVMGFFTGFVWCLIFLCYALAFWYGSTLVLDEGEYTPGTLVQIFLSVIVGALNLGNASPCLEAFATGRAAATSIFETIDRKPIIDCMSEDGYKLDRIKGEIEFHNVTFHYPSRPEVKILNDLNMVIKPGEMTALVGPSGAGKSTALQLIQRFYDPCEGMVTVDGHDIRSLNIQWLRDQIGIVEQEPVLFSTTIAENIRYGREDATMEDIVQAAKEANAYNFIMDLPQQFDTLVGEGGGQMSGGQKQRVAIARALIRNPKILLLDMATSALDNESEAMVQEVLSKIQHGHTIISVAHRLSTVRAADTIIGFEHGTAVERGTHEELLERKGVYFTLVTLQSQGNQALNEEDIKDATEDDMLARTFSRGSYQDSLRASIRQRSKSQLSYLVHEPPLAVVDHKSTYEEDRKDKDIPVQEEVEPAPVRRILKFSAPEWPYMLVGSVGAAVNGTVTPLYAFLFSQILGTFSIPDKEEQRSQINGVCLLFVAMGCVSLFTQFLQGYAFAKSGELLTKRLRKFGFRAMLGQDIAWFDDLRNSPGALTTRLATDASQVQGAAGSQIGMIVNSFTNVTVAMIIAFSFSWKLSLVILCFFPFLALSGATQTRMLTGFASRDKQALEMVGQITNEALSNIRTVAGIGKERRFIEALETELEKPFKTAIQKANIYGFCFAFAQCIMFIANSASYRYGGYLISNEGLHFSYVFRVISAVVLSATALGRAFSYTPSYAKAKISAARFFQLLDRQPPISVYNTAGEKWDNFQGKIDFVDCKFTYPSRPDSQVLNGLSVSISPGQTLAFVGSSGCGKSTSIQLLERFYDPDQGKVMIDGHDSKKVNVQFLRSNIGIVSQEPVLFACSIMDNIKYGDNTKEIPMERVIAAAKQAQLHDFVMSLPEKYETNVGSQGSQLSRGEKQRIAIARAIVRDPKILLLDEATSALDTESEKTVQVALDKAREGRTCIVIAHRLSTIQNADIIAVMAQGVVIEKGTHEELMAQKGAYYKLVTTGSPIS

On to `CC(C)n1c(=O)cc(N[C@@H](C)c2ccccc2)[nH]c1=O` [mavacamten, (S)-3-Isopropyl-6-((1-phenylethyl)amino)pyrimidine-2,4(1H,3H)-dione], for which the “Inhibition of OCTs” value in data set [1] was “does not inhibit”. At BSEP, the “Inhibition of BSEP” value is listed as “does not inhibit”. Moreover, the “Plasma exposure (AUC) at the NOAEL vs human exposure at the MRHD” value in the data set with dogs is listed as 0.3 times. For the same compound, in “Solubility”, the “Solubility in DMSO and NMP” value was “freely soluble”; the “Solubility in methanol and ethanol” value is “sparingly soluble”. In addition, in the data set “Solubility” (pH 2-10), the “Solubility in water and aqueous buffers” value is recorded as “practically insoluble”. Moreover, in the data set with virtual oHCM patients, the “patients excluded/permanently discontinued overall” value is on record as below 0.5%. Also, the “Embryo-fetal findings in the high dose group” value in the data set on pregnant rats (oral, 1.5 mg/kg/day, period of organogenesis) was “increases in post-implantation loss, decreases in mean fetal body weight, reductions in fetal ossification of bones, and fetal malformations (visceral and skeletal)”. Also, the “Plasma exposure (AUC) at the no-effect dose for embryo-fetal development vs humans at the MRHD” value in the data set on pregnant rats (rats) was 0.3 times. Also, in the data set on pregnant rats (rats, dose exposures similar to that at the MRHD), the “Embryo-fetal findings (risk summary)” value is “decreases in mean fetal body weight, reductions in fetal ossification of bones, and increases in post-implantation loss”. Also, the “Induction of CYP2B6” value with CYP2B6 is reported as “inducer”. Moreover, the “Genotoxicity, human in vitro lymphocyte electrogenicity assay” value in the data set on human lymphocyte is recorded as “not genotoxic”. In addition, the “QTc interval effect, multiple doses” value in the data set with healthy volunteers (doses up to 25 mg once daily) is reported as “concentration-dependent increase in the QTc interval”. Besides, in the data set on healthy volunteers (similar exposures), the “QTc interval effect, single-dose studies” value is reported as “No acute QTc changes”. For the same compound, the “Increase in mavacamten exposure (AUC)” value in data set [2] was “up to 220%”. Besides, in the data set on rats, the “Plasma exposure (AUC) at the NOAEL vs human exposure at the MRHD” value is 0.1 times. In addition, the “Inhibition of BCRP” value on BCRP is “does not inhibit”.
